Laboratory results taken from patent publication US6048853A, “1-arylphthalazine antagonists of excitatory amino acid receptors” (Bearsden Bio, Inc., priority 1996, dated 2000).
Like-named read-outs stand apart in the source and are kept apart here.

Columns and labels:
[1] = system: Male NIH Swiss mice; assay: Maximum Electro Shock (MES) Seizure Test; format: in vivo
Description: This test is to determine the extent of protection by a test compound in a seizure model. This model is described by Rogawski et al. (Epilepsy Research, 15:179-184, 1993). Male NIH Swiss mice (25-30 g) were injected ip with the test drug. […] Animals failing to show tonic hind limb extension were scored as protected. Compounds may be selected which are active in this model.
The results of this assay using compounds prepared as described in Examples 49, 50 and 102 are shown below in Table 2.

[2] = system: Mice; assay: Subcutaneous Metrazol (scMET) Seizure Test; format: in vivo; conditions: dose 3 mg/kg; time 0.5 hr; Metrazol 90 mg/kg sc
Description: This test is to determine the extent of protection by a test compound in a seizure model. The method used is that of Chen et al. (Proc. Soc. Exp. Biol. Med., 87:334, 1954). Mice are randomly assigned to vehicle or treatment groups of 3-10 animals per group and then dosed accordingly. Metrazol (pentylenetetrazol) 90 mg/kg is administered subcutaneously (sc) at different time points (0.25, 0.5, 1, 2, 4 hr) after the treatment or control groups. The mice individually housed in clear runs and observed for the presence or absence of clonic seizure activity (>5 s duration) for 30 min after metrazol dosing. A compound is considered active if no seizure is observed. Data is analyzed using aquantal measure (protection/number tested).
The results of this assay using compounds prepared as described in Examples 49 and 50 are shown below in Table 3.

[3] = system: rat; conditions: compared with NBQX; cited from earlier work
[4] = system: rat; conditions: cited from earlier work

## Nc1ccc(-c2nncc3cc4c(cc23)OCO4)cc1 [Example 49, 1-(4-Aminophenyl)-6,7-methylendioxyphthalazine]
[1]; dose 3 mg/kg ip, time 0.5 hours
  MES Score (protected/no. tested): 1/1
[1]; dose 15 mg/kg ip, time 2 hours
  MES Score (protected/no. tested): 2/4
[2]
  scMET Score (protect./no. tested): 1/5

## Cc1nnc(-c2ccc(N)cc2)c2cc3c(cc12)OCO3 [Example 50, 4-(4-Aminophenyl)-1-methyl-6,7-methylenedioxyphthalazine]
[1]; dose 1 mg/kg ip, time 4 hours
  MES Score (protected/no. tested): 1/7
[2]
  scMET Score (protect./no. tested): 1/5

## CC(=O)Nc1ccc(-c2nnc(C)c3cc4c(cc23)OCO4)cc1 [Example 102, 4-(4-acetylaminophenyl)-1-methyl-6,7-methylenedioxyphthalazine]
[1]; dose 100 mg/kg ip, time 4 hours
  MES Score (protected/no. tested): 3/3

## CC1=NN=C(c2ccc(N)cc2)c2cc3c(cc2C1)OCO3 [GYKI 52466]
[3]
  efficacy in global ischemia model: as effective as the glutamate site competitive antagonist NBQX
[4]; given continuously for 2 hours just after occlusion
  reduction of cortical infarct volume: 68%
[4]; given one hour after occlusion
  reduction of cortical infarct volume: 48%
